# Results taken from patent publication US7097969B2, “Non-endogenous, constitutively activated known G protein-coupled receptors” (Arena Pharmaceuticals, Inc., priority 2000, dated 2006).
# What was measured:
# GPR5 = experiment: Cell-based cAMP for Gi coupled target GPCRs, co-transfection with signal enhancer TSHR-A623I; design: species or system human; details: FIG. 2
# Text: (§1) A Gi coupled receptor is known to inhibit adenylyl cyclase, and, therefore, decrease the level of cAMP production, which can make assessment of cAMP levels challenging. An effective technique in measuring the decrease in production of cAMP as an indication of constitutive activation of a receptor that predominantly couples Gi upon activation can be accomplished by co-transfecting a signal enhancer, e.g., a non-endogenous, constitutively activated receptor that predominantly couples with Gs upon activation (e.g., TSHR-A623I, disclosed below), with the Gi linked GPCR (such a technique is exemplified herein with the Gi coupled receptor, GPR24). As is apparent, constitutive activation of a Gs coupled receptor can be determined based upon an increase in production of cAMP. Constitutive activation of a Gi coupled receptor leads to a decrease in production cAMP. Thus, the co-transfection approach is intended to advantageously exploit these “opposite” affects. For example, co-transfection of a non-endogenous, constitutively activated Gs coupled receptor (the “signal enhancer”) with the endogenous Gi coupled receptor (the “target receptor”) provides a baseline cAMP signal (i.e., although the Gi coupled receptor will decrease cAMP levels, this “decrease” will be relative to the substantial increase in cAMP levels established by constitutively activated Gs coupled signal enhancer). By then co-transfecting the signal enhancer with a constitutively activated version of the target receptor, cAMP would be expected to further decrease (relative to base line) due to the increased functional activity of the Gi target (i.e., which decreases cAMP).
# (§2) TSHR is a Gs coupled GPCR that causes the accumulation of cAMP upon activation. TSHR was constitutively activated by mutating amino acid residue 623 (i.e., changing an alanine residue to an isoleucine residue). See, SEQ.ID.NO.:402 for nucleic acid sequence and SEQ.ID.NO.:403 for deduced amino acid sequence. A Gi coupled receptor is expected to inhibit adenylyl cyclase, and, therefore, decrease the level of cAMP production, which can make assessment of cAMP levels challenging. An effective technique for measuring the decrease in production of cAMP as an indication of constitutive activation of a Gi coupled receptor can be accomplished by co-transfecting, most preferably, non-endogenous, constitutively activated TSHR (TSHR-A623I) (or an endogenous, constitutively active Gs coupled receptor) as a “signal enhancer” with a Gi linked target GPCR, such as GPR24, to establish a baseline level of cAMP. Upon creating a non-endogenous version of the Gi coupled receptor, this non-endogenous version of the target GPCR is then co-transfected with the signal enhancer, and it is this material that can be used for screening. We utilized such approach to effectively generate a signal when a cAMP assay is used; this approach is preferably used in the direct identification of candidate compounds against Gi coupled receptors. It is noted that for a Gi coupled GPCR, when this approach is used, an inverse agonist of the target GPCR will increase the cAMP signal and an agonist will decrease the cAMP signal.
# (§3) On day one, 2×10^4 Hek-293 and Hek-293T cells/well were plated out. On day two, two reaction tubes were prepared (the proportions to follow for each tube are per plate): tube A was prepared by mixing 2 μg DNA of each receptor transfected into the mammalian cells, for a total of 4 μg DNA (e.g., pCMV vector; pCMV vector with mutated THSR (TSHR-A623I); TSHR-A623I and GPR24, etc.) in 1.2 ml serum free DMEM (Irvine Scientific, Irvine, Calif.); tube B was prepared by mixing 120 μl lipofectamine (Gibco BRL) in 1.2 ml serum free DMEM. Tubes A and B were then admixed by inversion (several times), followed by incubation at room temperature for 30–45 min. The admixture is referred to as the “transfection mixture”. Plated Hek-293 cells were washed with 1×PBS, followed by addition of 10 ml serum free DMEM. […]
# GPR24 [1] = experiment: as above; design: species or system human; details: FIG. 1; for cAMP production: cells co-transfected with TSHR-A623I, in the presence of TSH; for decrease in cAMP production compared to TSHR-A623I with endogenous GPR24 (GPR24 wt): co-transfected with TSHR-A623I
# Text: as §1, §2, §3
# GPR24 [2] = experiment: Intracellular IP3 accumulation assay (Gq-associated receptors); format: cell-based, human; details: FIG. 4
# Method: On day 1, cells comprising the receptors (endogenous and/or non-endogenous) can be plated onto 24 well plates, usually 1×10^5 cells/well (although this number can be optimized. On day 2 cells can be transfected by firstly mixing 0.25 μg DNA in 50 μL serum free DMEM/well and 2 μL lipofectamine in 50 μl serum-free DMEM/well. The solutions are gently mixed and incubated for 15–30 min at room temperature. Cells are washed with 0.5 ml PBS and 400 μl of serum free media is mixed with the transfection media and added to the cells. The cells are then incubated for 3–4 hrs at 37° C./5% CO2 and then the transfection media is removed and replaced with 1 ml/well of regular growth media. On day 3 the cells are labeled with ^3H-myo-inositol. Briefly, the media is removed and the cells are washed with 0.5 ml PBS. Then 0.5 ml inositol-free/serum free media (GIBCO BRL) is added/well with 0.25 μCi of ^3H-myo-inositol/well and the cells are incubated for 16–18 hrs o/n at 37° C./5% CO2. On Day 4 the cells are washed with 0.5 ml PBS and 0.45 ml of assay medium is added containing inositol-free/serum free media 10 μM pargyline 10 mM lithium chloride or 0.4 ml of assay medium and 50 μL of 10× ketanserin (ket) to final concentration of 10 μM. The cells are then incubated for 30 min at 37° C. […]
Molecule,increase in IP3 accumulation compared to the endogenous version of GPR24 (GPR24 wt) (GPR24 [2]) [%],"cAMP production (GPR5; cells co-transfected with TSHR-A623I, in the presence of TSH) [pmol cAMP/well]",decrease in production of cAMP against pCMV co-transfected with TSHR-A623I (GPR5; reference pCMV + TSHR-A623I 106.75 pmol cAMP/well) [%],cAMP production (GPR24 [1]) [pmol cAMP/well],decrease in cAMP production compared to TSHR-A623I with endogenous GPR24 (GPR24 wt) (GPR24 [1]) [%]
GPR5 wt: endogenous target receptor GPR5,,58.79,~45,,
GPR24 wt: endogenous human GPR24 (also known as MCH or SLC-1) receptor [reference compound],,,,336.5,

# The next lines start with results.
increase in IP3 accumulation compared to the endogenous version of GPR24 (GPR24 wt) (GPR24 [2]) [%],Molecule,"cAMP production (GPR5; cells co-transfected with TSHR-A623I, in the presence of TSH) [pmol cAMP/well]",decrease in production of cAMP against pCMV co-transfected with TSHR-A623I (GPR5; reference pCMV + TSHR-A623I 106.75 pmol cAMP/well) [%],cAMP production (GPR24 [1]) [pmol cAMP/well],decrease in cAMP production compared to TSHR-A623I with endogenous GPR24 (GPR24 wt) (GPR24 [1]) [%]
~32,I261Q: non-endogenous version of the human GPR24 receptor with I261Q mutation (SEQ.ID.NO.:387),,,,~27
~27,"24-IC3-SST2: non-endogenous human GPR24 in which the IC3 loop is replaced with that of SST2 (SEQ.ID.NO.:359) (protein, listed as Homo sapiens) MDLEASLLPTGPNASNTSDGPDNLTSAGSPPRTGSISYINIIMPSVFGTICLLGIIGNSTVIFAVVKKSKLHWCNNVPDIFIINLSVVDLLFLLGMPFMIHQLMGNGVWHFGETMCTLITAMDANSQFTSTYILTAMAIDRYLATVHPISSTKFRKPSVATLVICLLWALSFISITPVWLYARLIPFPGGAVGCGIRLPNPDTDLYWFTLYQFFLAFALPFVVITAAYVRILQKVKSSGIRVGSSKRKKSEKKVTRTAIAICLVFFVCWAPYYVLQLTQLSISRPTLTFVYLYNAAISLGYANSCLNPFVYIVLCETFRKRLVLSVKPAAQGQLRAVSNAQTADEERTESKGTYFPCHPAHLQVRAPQHATGRDAEKNPRPLGKCRKAGLGVVAMKIHSMGSHVAGEAWSQVWGFQISEIPWGSRMRPLDRTEAEQENMLVWITGC",,,262.266,~22
